Assay results published in US10322998B2, “Heterogeneous foldamers containing α, β, and/or γ-amino acids” (WISCONSIN ALUMNI RESEARCH FOUNDATION, priority 2002, dated 2019).
Blank lines part the entries; values can stand above or below the compound they belong to.

Assay: Solubility, qualitative observations during synthesis and characterisation

solubility in organic solvents (organic solvents, crude product): poor solubility
SMILES: CC(C)[C@@H](NC(=O)OC(C)(C)C)C(=O)N[C@@H]1CCCC[C@H]1C(=O)N[C@@H](C(=O)N[C@@H]1CCCC[C@H]1C(=O)OCc1ccccc1)C(C)C [2-28, Boc-D-Val-ACHC-D-Val-ACHC-Olin]

SMILES: CC(C)(CNC(=O)[C@H]1CC[C@H](NC(=O)[C@H]2CC[C@H](NC(=O)Cc3ccccc3)C2)C1)NC(=O)[C@H]1CCCN1C(=O)[C@H]1CC[C@H](NC(=O)[C@H]2CC[C@H](NC(=O)C(C)(C)C)C2)C1 [compound 3]
solubility in CD2Cl2 (CD2Cl2): nearly insoluble

solubility in other solvents (solvents other than 1:1 CDCl3:CD3OD): poor solubility
SMILES: COC(=O)[C@H]1CC[C@H](NC(=O)[C@H]2CC[C@H](NC(=O)[C@H]3CC[C@H](NC(=O)[C@H]4CC[C@H](NC(=O)OC(C)(C)C)C4)C3)C2)C1 [Compound 7]

solubility in common solvents (crude compound, water, methanol, acetonitrile, acetone, ethyl acetate, methylene chloride, DMSO): insoluble
SMILES: CC(=O)NC1CCCC1C(=O)N[C@@H](Cc1ccccc1)C(=O)NC1CCCC1C(=O)N[C@@H](Cc1ccccc1)C(=O)NC1CCCC1C(=O)N[C@@H](Cc1ccccc1)C(N)=O (stereo partly shown) [Peptide 42]
